Test results published in US20240317741A1, “NAPHTHYRIDINE DERIVATIVE AS ATR INHIBITOR AND METHOD FOR PREPARING SAME” (WIGEN BIOMEDICINE TECHNOLOGY (SHANGHAI) CO., LTD., priority 2021, published 2024).

Each compound was assayed on MIA PaCa-2 cells (assay: In-vitro anti-proliferative activity against MIA PaCa-2 cells). Details: Homo sapiens, 72 h after dosing, intracellular ATP content.
Format: cell-based
Protocol: MIA PaCa-2 cells were seeded on a 384-well plate at 3000 cells/well. After overnight adherence culture, DMSO or the compounds serially diluted 1:5 from 5 μM were added. […] The inhibition percentage of viable cells by the compounds was calculated by comparing with the DMSO group, and the IC50 value was calculated.
C[C@@H]1COCCN1c1cc(CC#N)c2ccnc(-c3ccn[nH]3)c2n1 [Compound 1, (R)-2-(2-(3-methylmorpholino)-8-(1H-pyrazol-5-yl)-1,7-naphthyridin-4-yl)acetonitrile] showed an IC50 greater than 5000 nM. CC(C#N)c1cc(N2CCOC[C@H]2C)nc2c(-c3ccn[nH]3)nccc12 (stereo partly drawn) [Compound 2, 2-(2-((R)-3-methylmorpholino)-8-(1H-pyrazol-5-yl)-1,7-naphthyridin-4-yl)propionitrile] gave an IC50 greater than 5000 nM. In the case of C[C@@H]1COCCN1c1cc(C(C)(C)C#N)c2ccnc(-c3ccn[nH]3)c2n1 [Compound 3, (R)-2-methyl-2-(2-(3-methylmorpholino)-8-(1H-pyrazol-5-yl)-1,7-naphthyridin-4-yl)propionitrile], the IC50 is reported as greater than 5000 nM. With CCC(C#N)c1cc(N2CCOC[C@H]2C)nc2c(-c3ccn[nH]3)nccc12 (some centres unmarked) [Compound 4] the IC50 was greater than 5000 nM. CC(C)C(C#N)c1cc(N2CCOC[C@H]2C)nc2c(-c3ccn[nH]3)nccc12 (some centres unmarked) [Compound 5] showed an IC50 of 1000 to 5000 nM. For C[C@@H]1COCCN1c1cc(C(C#N)CC2CC2)c2ccnc(-c3ccn[nH]3)c2n1 (some centres unmarked) [Compound 6], the IC50 was 1000 to 5000 nM. C=CC(C#N)c1cc(N2CCOC[C@H]2C)nc2c(-c3ccn[nH]3)nccc12 (some centres unmarked) [Compound 7] showed an IC50 greater than 5000 nM. Compound CC#CC(C#N)c1cc(N2CCOC[C@H]2C)nc2c(-c3ccn[nH]3)nccc12 (some centres unmarked) [Compound 8] has an IC50 greater than 5000 nM. C[C@@H]1COCCN1c1cc(C(C#N)CCO)c2ccnc(-c3ccn[nH]3)c2n1 (some centres unmarked) [Compound 9] was tested, and the IC50 was 1000 to 5000 nM. In the case of COCCC(C#N)c1cc(N2CCOC[C@H]2C)nc2c(-c3ccn[nH]3)nccc12 (some centres unmarked) [Compound 10], the IC50 is reported as 1000 to 5000 nM. C[C@@H]1COCCN1c1cc(C(C#N)CC(N)=O)c2ccnc(-c3ccn[nH]3)c2n1 (some centres unmarked) [Compound 11] was tested, and the IC50 was 1000 to 5000 nM. In the case of CCOP(=O)(CCC(C#N)c1cc(N2CCOC[C@H]2C)nc2c(-c3ccn[nH]3)nccc12)OCC (some centres unmarked) [Compound 12], the IC50 is reported as 1000 to 5000 nM. Work on CSCCC(C#N)c1cc(N2CCOC[C@H]2C)nc2c(-c3ccn[nH]3)nccc12 (some centres unmarked) [Compound 13] yielded an IC50 of 1000 to 5000 nM. C[C@@H]1COCCN1c1cc(C(C#N)CC[S+](C)[O-])c2ccnc(-c3ccn[nH]3)c2n1 (some centres unmarked) [Compound 14] gave an IC50 greater than 5000 nM. C[C@@H]1COCCN1c1cc(C(C#N)CCS(C)(=O)=O)c2ccnc(-c3ccn[nH]3)c2n1 (some centres unmarked) [Compound 15] gave an IC50 greater than 5000 nM. C[C@@H]1COCCN1c1cc(C(C#N)CCN)c2ccnc(-c3ccn[nH]3)c2n1 (some centres unmarked) [Compound 16] was tested, and the IC50 was 1000 to 5000 nM. Work on C[C@@H]1COCCN1c1cc(C(C#N)CCN(C)C)c2ccnc(-c3ccn[nH]3)c2n1 (some centres unmarked) [Compound 17] yielded an IC50 of 1000 to 5000 nM. C[C@@H]1COCCN1c1cc(C(C#N)CCN2CCCC2)c2ccnc(-c3ccn[nH]3)c2n1 (some centres unmarked) [Compound 18] gave an IC50 of 1000 to 5000 nM. In the case of C[C@@H]1COCCN1c1cc(C(C#N)CCN2CCN(C)CC2)c2ccnc(-c3ccn[nH]3)c2n1 (some centres unmarked) [Compound 19], the IC50 is reported as 1000 to 5000 nM. For C[C@@H]1COCCN1c1cc(C(C#N)C2CCC2)c2ccnc(-c3ccn[nH]3)c2n1 (some centres unmarked) [Compound 20], the IC50 was greater than 5000 nM. C[C@@H]1COCCN1c1cc(C(C#N)C2CCCCC2)c2ccnc(-c3ccn[nH]3)c2n1 (some centres unmarked) [Compound 21] gave an IC50 of 1000 to 5000 nM. C[C@@H]1COCCN1c1cc(C(C#N)C2CCOCC2)c2ccnc(-c3ccn[nH]3)c2n1 (some centres unmarked) [Compound 22] gave an IC50 of 1000 to 5000 nM. C[C@@H]1COCCN1c1cc(C(C#N)C2CCC(N(C)C)CC2)c2ccnc(-c3ccn[nH]3)c2n1 (some centres unmarked) [Compound 23] was tested, and the IC50 was 1000 to 5000 nM. In the case of C[C@@H]1COCCN1c1cc(C(C#N)C2CCN(C)CC2)c2ccnc(-c3ccn[nH]3)c2n1 (some centres unmarked) [Compound 24], the IC50 is reported as 1000 to 5000 nM. C[C@@H]1COCCN1c1cc(C2(C#N)CCC2)c2ccnc(-c3ccn[nH]3)c2n1 [Compound 26] showed an IC50 of 1000 to 5000 nM. For C[C@@H]1COCCN1c1cc(C2(C#N)CC2)c2ccnc(-c3ccn[nH]3)c2n1 [Compound 28], the IC50 was greater than 5000 nM. C[C@@H]1COCCN1c1cc(C2(C#N)CCSCC2)c2ccnc(-c3ccn[nH]3)c2n1 [Compound 30] showed an IC50 of 1000 to 5000 nM. With C[C@@H]1COCCN1c1cc(C2(C#N)CCCCCC2)c2ccnc(-c3ccn[nH]3)c2n1 [Compound 31] the IC50 was less than 1000 nM. With C[C@@H]1COCCN1c1cc(C2(C#N)CCC3(CC3)CC2)c2ccnc(-c3ccn[nH]3)c2n1 [Compound 32] the IC50 was less than 1000 nM. For C[C@@H]1COCCN1c1cc(C2(C#N)CCC(N3CCN(C)CC3)CC2)c2ccnc(-c3ccn[nH]3)c2n1 (some centres unmarked) [Compound 36], the IC50 was less than 1000 nM. C[C@@H]1COCCN1c1cc(C2(C#N)CCNCC2)c2ccnc(-c3ccn[nH]3)c2n1 [Compound 37, (R)-4-(2-(3-methylmorpholino)-8-(1H-pyrazol-5-yl)-1,7-naphthyridin-4-yl)piperidine-4-carbonitrile] gave an IC50 of 1000 to 5000 nM. CC(=O)N1CCC(C#N)(c2cc(N3CCOC[C@H]3C)nc3c(-c4ccn[nH]4)nccc23)CC1 [Compound 38, (R)-1-acetyl-4-(2-(3-methylmorpholino)-8-(1H-pyrazol-5-yl)-1,7-naphthyridin-4-yl)piperidine-4-carbonitrile] showed an IC50 of 1000 to 5000 nM. With C[C@@H]1COCCN1c1cc(C2(C#N)CCN(S(C)(=O)=O)CC2)c2ccnc(-c3ccn[nH]3)c2n1 [Compound 39] the IC50 was 1000 to 5000 nM. CC(=O)N1CCCC(C#N)(c2cc(N3CCOC[C@H]3C)nc3c(-c4ccn[nH]4)nccc23)C1 (some centres unmarked) [Compound 40] gave an IC50 greater than 5000 nM. C[C@@H]1COCCN1c1cc(C2(C#N)CCN(CC(F)(F)F)CC2)c2ccnc(-c3ccn[nH]3)c2n1 [Compound 41, (R)-4-(2-(3-methylmorpholino)-8-(1H-pyrazol-5-yl)-1,7-naphthyridin-4-yl)-1-(2,2,2-trifluoroethyl)piperidine-4-carbonitrile] showed an IC50 of less than 1000 nM. C[C@@H]1COCCN1c1cc(C2(C#N)CCN(CC(F)F)CC2)c2ccnc(-c3ccn[nH]3)c2n1 [Compound 42] was tested, and the IC50 was less than 1000 nM. Work on C[C@@H]1COCCN1c1cc(C2(C#N)CCN(C3CCN(C)CC3)CC2)c2ccnc(-c3ccn[nH]3)c2n1 [Compound 44] yielded an IC50 of less than 1000 nM. For C[C@@H]1COCCN1c1cc(C2(C#N)CCN(c3ccc(Cl)cc3)CC2)c2ccnc(-c3ccn[nH]3)c2n1 [Compound 45, (R)-1-(4-chlorophenyl)-4-(2-(3-methylmorpholino)-8-(1H-pyrazol-5-yl)-1,7-naphthyridin-4-yl)piperidine-4-carbonitrile], the IC50 was less than 1000 nM. In the case of C[C@@H]1COCCN1c1cc(C2(C#N)CCN(C3CC3)CC2)c2ccnc(-c3ccn[nH]3)c2n1 [Compound 46], the IC50 is reported as less than 1000 nM. C[C@@H]1COCCN1c1cc(C2(C#N)CCN(c3ccc(F)cn3)CC2)c2ccnc(-c3ccn[nH]3)c2n1 [Compound 47] showed an IC50 of 1000 to 5000 nM. C[C@@H]1COCCN1c1cc(C2(C#N)CCN(c3cccc(F)c3)CC2)c2ccnc(-c3ccn[nH]3)c2n1 [Compound 48] gave an IC50 of less than 1000 nM. In the case of C[C@@H]1COCCN1c1cc(C2(C#N)CCN(c3ccccc3F)CC2)c2ccnc(-c3ccn[nH]3)c2n1 [Compound 49], the IC50 is reported as less than 1000 nM. Compound C[C@@H]1COCCN1c1cc(C2(C#N)CCN(c3ccc(F)cc3)CC2)c2ccnc(-c3ccn[nH]3)c2n1 [Compound 50] has an IC50 of less than 1000 nM. C[C@@H]1COCCN1c1cc(C2(C#N)CCC3(CC2)COC3)c2ccnc(-c3ccn[nH]3)c2n1 [Compound 51] was tested, and the IC50 was less than 1000 nM. For C[C@@H]1COCCN1c1cc(C2(C#N)CCC3(CC2)CN(C)C3)c2ccnc(-c3ccn[nH]3)c2n1 [Compound 52], the IC50 was less than 1000 nM. With CCOC1CCC(C#N)(c2cc(N3CCOC[C@H]3C)nc3c(-c4ccn[nH]4)nccc23)CC1 (some centres unmarked) [Compound 54] the IC50 was less than 1000 nM. Work on CC(C)OC1CCC(C#N)(c2cc(N3CCOC[C@H]3C)nc3c(-c4ccn[nH]4)nccc23)CC1 (some centres unmarked) [Compound 55] yielded an IC50 of less than 1000 nM. For C[C@@H]1COCCN1c1cc(C2(C#N)CCC(OCC3CC3)CC2)c2ccnc(-c3ccn[nH]3)c2n1 (some centres unmarked) [Compound 56], the IC50 was less than 1000 nM. C[C@@H]1COCCN1c1cc(C2(C#N)CCC(OC3CC3)CC2)c2ccnc(-c3ccn[nH]3)c2n1 (some centres unmarked) [Compound 57] was tested, and the IC50 was less than 1000 nM. C[C@@H]1COCCN1c1cc(C2(C#N)CCC(OC3CCC3)CC2)c2ccnc(-c3ccn[nH]3)c2n1 (some centres unmarked) [Compound 58] gave an IC50 of less than 1000 nM. Compound C[C@@H]1COCCN1c1cc(C2(C#N)CCC(OC3CCCC3)CC2)c2ccnc(-c3ccn[nH]3)c2n1 (some centres unmarked) [Compound 59] has an IC50 of less than 1000 nM. With C[C@@H]1COCCN1c1cc(C2(C#N)CCC(N)CC2)c2ccnc(-c3ccn[nH]3)c2n1 (some centres unmarked) [Compound 60] the IC50 was less than 1000 nM. For CNC1CCC(C#N)(c2cc(N3CCOC[C@H]3C)nc3c(-c4ccn[nH]4)nccc23)CC1 (some centres unmarked) [Compound 61], the IC50 was less than 1000 nM. CCN(CC)C1CCC(C#N)(c2cc(N3CCOC[C@H]3C)nc3c(-c4ccn[nH]4)nccc23)CC1 (some centres unmarked) [Compound 62] showed an IC50 of less than 1000 nM. With C[C@@H]1COCCN1c1cc(C2(C#N)CCC(N3CCC3)CC2)c2ccnc(-c3ccn[nH]3)c2n1 (some centres unmarked) [Compound 63] the IC50 was less than 1000 nM. For C[C@@H]1COCCN1c1cc(C2(C#N)CCC(N3CCCCC3)CC2)c2ccnc(-c3ccn[nH]3)c2n1 (some centres unmarked) [Compound 64], the IC50 was less than 1000 nM. With C[C@@H]1COCCN1c1cc(C2(C#N)CCC(N3CCOCC3)CC2)c2ccnc(-c3ccn[nH]3)c2n1 (some centres unmarked) [Compound 65] the IC50 was less than 1000 nM. In the case of CCN1CCC(C#N)(c2cc(N3CCOC[C@H]3C)nc3c(-c4ccn[nH]4)nccc23)CC1 [Compound 66], the IC50 is reported as less than 1000 nM. Work on CC(C)N1CCC(C#N)(c2cc(N3CCOC[C@H]3C)nc3c(-c4ccn[nH]4)nccc23)CC1 [Compound 67] yielded an IC50 of less than 1000 nM. In the case of C[C@@H]1COCCN1c1cc(C2(C#N)CCN(C3CCC3)CC2)c2ccnc(-c3ccn[nH]3)c2n1 [Compound 68], the IC50 is reported as less than 1000 nM. C[C@@H]1COCCN1c1cc(C2(C#N)CCN(C3COC3)CC2)c2ccnc(-c3ccn[nH]3)c2n1 [Compound 70] showed an IC50 of less than 1000 nM. Work on C[C@@H]1COCCN1c1cc(C2(C#N)CCN(C3CN(C)C3)CC2)c2ccnc(-c3ccn[nH]3)c2n1 [Compound 72] yielded an IC50 of less than 1000 nM. Work on C[C@@H]1COCCN1c1cc(C2(C#N)CCN(C3CCOC3)CC2)c2ccnc(-c3ccn[nH]3)c2n1 (some centres unmarked) [Compound 73] yielded an IC50 of less than 1000 nM. Work on C[C@@H]1COCCN1c1cc(C2(C#N)CCN(C3CCN(C)C3)CC2)c2ccnc(-c3ccn[nH]3)c2n1 (some centres unmarked) [Compound 74] yielded an IC50 of less than 1000 nM. With COCCN1CCC(C#N)(c2cc(N3CCOC[C@H]3C)nc3c(-c4ccn[nH]4)nccc23)CC1 [Compound 75] the IC50 was less than 1000 nM.
